In PubChem BioAssay (NCI):
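Exposure lasted 48 hours, with cells grown in 96-well plates and compounds tested at five concentrations. The concentration for 50% growth inhibition is given as GI50. TGI: concentration producing complete growth inhibition.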

Assays:
Assay in all cases: inhibition of tumour cell growth, NCI panel, 48 h
[1] = test system: 786-0 renal
[2] = test system: A498 renal
[3] = test system: ACHN renal
[4] = test system: CCRF-CEM leukemia
[5] = test system: SK-OV-3 ovarian
[6] = test system: SNB-19 CNS
[7] = test system: SW-620 colon
[8] = test system: T-47D breast
[9] = test system: TK-10 renal
[10] = test system: UACC-62 melanoma

SMILES	GI50 [1] [µM]	TGI [1] [µM]	GI50 [2] [µM]	TGI [2] [µM]	GI50 [3] [µM]	TGI [3] [µM]	GI50 [4] [µM]	TGI [4] [µM]	GI50 [5] [µM]	TGI [5] [µM]	GI50 [6] [µM]	TGI [6] [µM]	GI50 [7] [µM]	TGI [7] [µM]	GI50 [8] [µM]	TGI [8] [µM]	GI50 [9] [µM]	TGI [9] [µM]	GI50 [10] [µM]	TGI [10] [µM]
O=C(Nc1ccc(S(=O)(=O)Nc2nccs2)cc1)c1cccnc1Nc1cccc(Cl)c1	17.9	39.9	10.1	23.7	18.1	96.6	23.4	> 100	20.8	58.8	14.7	34.4	14.2	28.7	8.42	> 100	22.8	51.1	6.62	20.3
C=C1C(=O)O[C@H]2[C@H]1CC/C(COC(=O)C(=O)c1c[nH]c3ccccc13)=C\CC[C@@]1(C)O[C@@H]21	1.84	3.72	8.56	20.7	2.13	6.1	1.27	13.1	11.9	24.6	10.6	26	3.09	16.6	1.61	4.47	1.38	2.81	1.89	4.29
O=[N+]([O-])c1cnc(Sc2ccncn2)c([N+](=O)[O-])c1	12.2	25	24.9	65.3	1.77	3.27	1.21	4.47	16.9	31.1	32.8	> 100	2.19	4.45	1.78	3.8	1.74	3.21	10.5	22.3
Cc1ccc(C)c(NC(=O)C(=O)C(c2cnc3ccc([N+](=O)[O-])cc3n2)[N+](=O)[O-])c1 (stereo not given)		> 100		69		> 100		79.1		> 100		> 100		> 100		> 100		> 100		> 100
CS(=O)(=O)c1ccc(Oc2cc(F)cc(C#N)c2)c2c1[C@H](O)[C@H](F)[C@@H]2F	> 100	> 100	4.86	> 100	> 100	> 100	> 100	> 100	> 100	> 100	> 100	> 100	> 100	> 100	> 100	> 100	> 100	> 100	> 100	> 100
CNc1ccccc1C(=O)N/N=C/C=C/c1ccccc1	15.6	> 100	0.39	5.81	11.8	> 100	2.39	97	4.15	> 100	7.01	> 100	0.454	> 100	3.48	> 86.9	3.33	> 100	0.816	32.7
O=[N+]([O-])c1ccc(N2CCN(Cc3ccccc3)CC2)c2c1no[n+]2[O-]	1.72	3.18	1.52	4.35	0.85	2.2	0.155	2.49	1.98	4.89	2.23	6.51	1.2	3.05	1.41	3.89	1.75	3.23	1.48	3.4
O=C1c2ccccc2-c2c1c1ccccc1c(=O)n2CCCNCCCn1c2c(c3ccccc3c1=O)C(=O)c1ccccc1-2	8.53	29.8	8.97	17.4	0.814	8.81	12.6	> 50	11.7	40.5	6.83	> 40.5	0.852	> 12.5	10.7	27.7	5.34	18	7.52	16.4
CC(O)C1OC(O)C2OC(C)(C)OC12 (stereo not given)		> 100		> 100		> 100		> 100		> 100		> 100		> 100		> 100		> 100		> 100
O=C1OC(c2ccco2)=N/C1=C\c1ccc(Cl)c(Cl)c1		> 100		> 100		> 100		> 100		> 100		> 100		> 100		> 100		> 100		> 100
Cc1ccc(NC(c2ccccc2)c2ccc3cccnc3c2O)cc1 (stereo not given)		15.1		54.8		15.5		4.27		23.8		20		> 52.2		36		14.3		18.3
